“And” between values parts separate entries of the source, which are not always exact repeats. Equal values may be shown once. Toxic doses and inconclusive results are not listed. No stated cut-off is given here; in the data, active means T/C of 150% or more; inactive means T/C below 125%.
Tested on: L1210 leukemia ip in BDF1 mice, survival T/C
Experiment: NCI In Vivo Anticancer Drug Screen. Data for tumor model L1210 Leukemia (intraperitoneal) in B6D2F1 (BDF1) mice
Conditions: higher = longer survival
Procedure, shortened: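 Tumor cells were implanted, animals were treated, and survival was followed. The result divides the treated measurement by the vehicle-control measurement.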

[1] = endpoint: mean survival time, dose: 100.0 mg/kg/injection, schedule: Q04DX003 (ip), vehicle: saline
[2] = endpoint: mean survival time, dose: 200.0 mg/kg/injection, schedule: Q04DX003 (ip), vehicle: saline
[3] = endpoint: mean survival time, dose: 100.0 mg/kg/injection, schedule: Q01DX009 (ip), vehicle: Klucel (hydroxypropylcellulose) (HPC)
[4] = endpoint: mean survival time, dose: 100.0 mg/kg/injection, schedule: Q04DX003 (ip), vehicle: Klucel (hydroxypropylcellulose) (HPC)
[5] = endpoint: mean survival time, dose: 200.0 mg/kg/injection, schedule: Q01DX009 (ip), vehicle: Klucel (hydroxypropylcellulose) (HPC)
[6] = endpoint: mean survival time, dose: 200.0 mg/kg/injection, schedule: Q04DX003 (ip), vehicle: Klucel (hydroxypropylcellulose) (HPC)
[7] = endpoint: mean survival time, dose: 400.0 mg/kg/injection, schedule: Q01DX009 (ip), vehicle: Klucel (hydroxypropylcellulose) (HPC)
[8] = endpoint: mean survival time, dose: 400.0 mg/kg/injection, schedule: Q04DX003 (ip), vehicle: Klucel (hydroxypropylcellulose) (HPC)
[9] = endpoint: mean survival time, dose: 100.0 mg/kg/injection, schedule: Q01DX001 (ip), vehicle: saline
[10] = endpoint: mean survival time, dose: 200.0 mg/kg/injection, schedule: Q01DX001 (ip), vehicle: saline
[11] = endpoint: mean survival time, dose: 400.0 mg/kg/injection, schedule: Q01DX001 (ip), vehicle: saline
[12] = endpoint: mean survival time, dose: 100.0 mg/kg/injection, schedule: Q04DX003 (ip), vehicle: saline with Tween-80
[13] = endpoint: mean survival time, dose: 200.0 mg/kg/injection, schedule: Q04DX003 (ip), vehicle: saline with Tween-80
[14] = endpoint: mean survival time, dose: 400.0 mg/kg/injection, schedule: Q04DX003 (ip), vehicle: saline with Tween-80
[15] = endpoint: mean survival time, dose: 50.0 mg/kg/injection, schedule: Q01DX001 (ip), vehicle: carboxymethylcellulose (CMC)
[16] = endpoint: mean survival time, dose: 100.0 mg/kg/injection, schedule: Q01DX001 (ip), vehicle: carboxymethylcellulose (CMC)
[17] = endpoint: mean survival time, dose: 200.0 mg/kg/injection, schedule: Q01DX001 (ip), vehicle: carboxymethylcellulose (CMC)
[18] = endpoint: mean survival time, dose: 400.0 mg/kg/injection, schedule: Q01DX001 (ip), vehicle: carboxymethylcellulose (CMC)

Measured: T/C

CCOCCOCCOC(C)Oc1ccc(Cl)cc1 (centres undefined)
inactive: endpoint: mean survival time, dose: 100.0 mg/kg/injection, schedule: Q04DX002 (ip), vehicle: saline 96 % of control | endpoint: mean survival time, dose: 200.0 mg/kg/injection, schedule: Q04DX002 (ip), vehicle: saline 90 % of control | endpoint: mean survival time, dose: 400.0 mg/kg/injection, schedule: Q04DX002 (ip), vehicle: saline 104 % of control

CC(=O)/C=C/c1ccccc1
inactive: endpoint: mean survival time, dose: 100.0 mg/kg/injection, schedule: Q01DX001 (ip), vehicle: gum acacia 91 % of control | endpoint: mean survival time, dose: 200.0 mg/kg/injection, schedule: Q01DX001 (ip), vehicle: gum acacia 105 % of control | endpoint: mean survival time, dose: 400.0 mg/kg/injection, schedule: Q01DX001 (ip), vehicle: gum acacia 97 % of control

N#CCC(=O)NCc1cnccn1
inactive: endpoint: mean survival time, dose: 50.0 mg/kg/injection, schedule: Q01DX005 (ip), vehicle: saline 110 % of control | endpoint: mean survival time, dose: 100.0 mg/kg/injection, schedule: Q01DX005 (ip), vehicle: saline 104 % of control | [1] 103 % of control | endpoint: mean survival time, dose: 200.0 mg/kg/injection, schedule: Q01DX005 (ip), vehicle: saline 105 % of control | [2] 103 % of control | endpoint: mean survival time, dose: 400.0 mg/kg/injection, schedule: Q01DX005 (ip), vehicle: saline 105 % of control | endpoint: mean survival time, dose: 400.0 mg/kg/injection, schedule: Q04DX003 (ip), vehicle: saline 101 % of control

FC(F)(F)S.[Hg]
inactive: endpoint: mean survival time, dose: 5.0 mg/kg/injection, schedule: Q01DX009 (ip), vehicle: saline 86 % of control | endpoint: mean survival time, dose: 10.0 mg/kg/injection, schedule: Q01DX009 (ip), vehicle: saline 93 % of control

O=C(O)C1CC=CCCC1 (centres undefined)
inactive: [3] 96 % of control | [4] 101 % of control | [5] 96 % of control | [6] 101 % of control | [7] 93 % of control | [8] 98 % of control

CCCCCCCCCC1OOC1(C)C (centres undefined)
inactive: endpoint: mean survival time, dose: 50.0 mg/kg/injection, schedule: Q01DX001 (ip), vehicle: water 97 % of control | endpoint: mean survival time, dose: 100.0 mg/kg/injection, schedule: Q01DX001 (ip), vehicle: water 93 % of control | endpoint: mean survival time, dose: 200.0 mg/kg/injection, schedule: Q01DX001 (ip), vehicle: water 93 % of control

CCCCCN(C(=N)CCCC)S(=O)(=O)c1ccccc1
inactive: [9] 89 % of control | [10] 95 % of control | [11] 106 % of control

COC(=O)c1ccc(C(=O)O)nc1
inactive: [3] 104 % of control | [5] 94 % of control | [7] 102 % of control

CCN(c1ccc2c(c1)C(=O)c1ccccc1-2)S(=O)(=O)c1ccc(C)cc1
inactive: [4] 96 % of control | [6] 98 % of control | [8] 98 % of control

CC(O)(C(=O)c1ccccc1)c1ccc(Cl)cc1 (centres undefined)
inactive: [4] 95 % of control | [6] 98 % of control | [8] 101 % of control

CN(C)NCC(O)COc1ccc(Cl)cc1 (centres undefined)
inactive: endpoint: mean survival time, dose: 100.0 mg/kg/injection, schedule: Q04DX002 (ip), vehicle: Klucel (hydroxypropylcellulose) (HPC) 103 % of control | endpoint: mean survival time, dose: 200.0 mg/kg/injection, schedule: Q04DX002 (ip), vehicle: Klucel (hydroxypropylcellulose) (HPC) 100 % of control

O=C(Nc1ccc(Cl)cc1)c1cccc([N+](=O)[O-])c1O
inactive: endpoint: mean survival time, dose: 6.25 mg/kg/injection, schedule: Q01DX009 (ip), vehicle: Klucel (hydroxypropylcellulose) (HPC) 102 % of control | endpoint: mean survival time, dose: 12.5 mg/kg/injection, schedule: Q01DX009 (ip), vehicle: Klucel (hydroxypropylcellulose) (HPC) 106 % of control | endpoint: mean survival time, dose: 25.0 mg/kg/injection, schedule: Q01DX009 (ip), vehicle: Klucel (hydroxypropylcellulose) (HPC) 95 % of control

Cc1nc(N)c2c(ncn2C2OC(CO)C(O)C2O)n1 (centres undefined)
inactive: [9] 100 % of control | [10] 108 % of control | [11] 105 % of control

Cc1cc(C(=O)CC(C)C(=O)O)cc2c1sc1ccccc12 (centres undefined)
inactive: [9] 86 % of control | [10] 100 % of control

O=C(c1ccccc1)c1cc(=O)[nH]c(=O)[nH]1
inactive: endpoint: mean survival time, dose: 47.5 mg/kg/injection, schedule: Q01DX001 (ip), vehicle: Klucel (hydroxypropylcellulose) (HPC) 100 % of control | endpoint: mean survival time, dose: 95.0 mg/kg/injection, schedule: Q01DX001 (ip), vehicle: Klucel (hydroxypropylcellulose) (HPC) 102 % of control | endpoint: mean survival time, dose: 190.0 mg/kg/injection, schedule: Q01DX001 (ip), vehicle: Klucel (hydroxypropylcellulose) (HPC) 98 % of control

CN1CCN(/N=N/N2CCN(C)CC2)CC1
inactive: endpoint: mean survival time, dose: 100.0 mg/kg/injection, schedule: Q01DX001 (ip), vehicle: Klucel (hydroxypropylcellulose) (HPC) 105 % of control | endpoint: mean survival time, dose: 200.0 mg/kg/injection, schedule: Q01DX001 (ip), vehicle: Klucel (hydroxypropylcellulose) (HPC) 101 % of control | endpoint: mean survival time, dose: 400.0 mg/kg/injection, schedule: Q01DX001 (ip), vehicle: Klucel (hydroxypropylcellulose) (HPC) 100 % of control

CN(CCSSCCN(C)C(N)=S)C(N)=S
inactive: endpoint: mean survival time, dose: 75.0 mg/kg/injection, schedule: Q04DX003 (ip), vehicle: saline 96 % of control | endpoint: mean survival time, dose: 150.0 mg/kg/injection, schedule: Q04DX003 (ip), vehicle: saline 87 % of control | endpoint: mean survival time, dose: 300.0 mg/kg/injection, schedule: Q04DX003 (ip), vehicle: saline 96 % of control

c1c(N2CC2)cc(N2CC2)cc1N1CC1
inactive: endpoint: median survival time, dose: 100.0 mg/kg/injection, schedule: Q01DX009 (ip), vehicle: Klucel (hydroxypropylcellulose) (HPC) 108 % of control | endpoint: median survival time, dose: 200.0 mg/kg/injection, schedule: Q01DX009 (ip), vehicle: Klucel (hydroxypropylcellulose) (HPC) 97 % of control | endpoint: median survival time, dose: 400.0 mg/kg/injection, schedule: Q01DX009 (ip), vehicle: Klucel (hydroxypropylcellulose) (HPC) 92 % of control

O=S(=O)(O)n1nc2ccccc2c1-c1ccccc1
inactive: endpoint: mean survival time, dose: 100.0 mg/kg/injection, schedule: Q04DX002 (ip), vehicle: saline with Tween-80 96 % of control | endpoint: mean survival time, dose: 200.0 mg/kg/injection, schedule: Q04DX002 (ip), vehicle: saline with Tween-80 96 % of control

CCNc1cc(Cl)nc(N)n1
inactive: endpoint: mean survival time, dose: 100.0 mg/kg/injection, schedule: Q01DX009 (ip), vehicle: saline with Tween-80 92 % of control | [12] 105 % of control | endpoint: mean survival time, dose: 200.0 mg/kg/injection, schedule: Q01DX009 (ip), vehicle: saline with Tween-80 101 % of control | [13] 98 % of control | endpoint: mean survival time, dose: 400.0 mg/kg/injection, schedule: Q01DX009 (ip), vehicle: saline with Tween-80 104 % of control | [14] 104 % of control

CN1CCC(CNC(=O)c2ccccc2)c2ccccc21 (centres undefined)
inactive: [15] 100 % of control | [16] 96 % of control | [17] 92 % of control | [18] 102 % of control

CC1(c2ccccc2)CCc2ccccc21 (centres undefined)
inactive: [12] 100 % of control | [13] 98 % of control | [14] 98 % of control

CSc1ncnc2c1ncn2-n1cccc1
inactive: endpoint: mean survival time, dose: 100.0 mg/kg/injection, schedule: Q01DX001 (ip), vehicle: saline with Tween-80 104 % of control | [3] 97 % of control | [4] 93 % of control | [12] 103 % of control | endpoint: mean survival time, dose: 200.0 mg/kg/injection, schedule: Q01DX001 (ip), vehicle: saline with Tween-80 106 % of control | [5] 95 % of control | [6] 96 % of control | [13] 101 % of control | endpoint: mean survival time, dose: 400.0 mg/kg/injection, schedule: Q01DX001 (ip), vehicle: saline with Tween-80 95 % of control | [7] 101 % of control | [8] 98 % of control

C[N+](C)(C)CCCC[N+](C)(C)C
inactive: endpoint: mean survival time, dose: 50.0 mg/kg/injection, schedule: Q01DX009 (ip), vehicle: saline 110 % of control | endpoint: mean survival time, dose: 100.0 mg/kg/injection, schedule: Q01DX009 (ip), vehicle: saline 100 % of control and 106 % of control | [1] 102 % of control | endpoint: mean survival time, dose: 200.0 mg/kg/injection, schedule: Q01DX009 (ip), vehicle: saline 98 % of control and 111 % of control | [2] 100 % of control

O=C1NCC(c2ccccc2)(c2ccccc2)C(=O)N1
inactive: [15] 94 % of control | [16] 94 % of control | [17] 91 % of control | [18] 86 % of control

Cc1ccc(NC(=O)c2cccc(C(=O)Nc3ccc(C)c(Cl)c3)c2)cc1Cl
inactive: [3] 91 % of control | [4] 95 % of control | [5] 97 % of control | [6] 96 % of control | [7] 92 % of control | [8] 106 % of control
